The assay deals with T1, human GPR139 (Homo sapiens, UniProt Q6DWJ6).
T1 construct: expressed in transfected cells; host or cells: CHO-TREx (Life Technologies) cells, expression induced with doxycycline
T1 sequence (Q6DWJ6 1-353): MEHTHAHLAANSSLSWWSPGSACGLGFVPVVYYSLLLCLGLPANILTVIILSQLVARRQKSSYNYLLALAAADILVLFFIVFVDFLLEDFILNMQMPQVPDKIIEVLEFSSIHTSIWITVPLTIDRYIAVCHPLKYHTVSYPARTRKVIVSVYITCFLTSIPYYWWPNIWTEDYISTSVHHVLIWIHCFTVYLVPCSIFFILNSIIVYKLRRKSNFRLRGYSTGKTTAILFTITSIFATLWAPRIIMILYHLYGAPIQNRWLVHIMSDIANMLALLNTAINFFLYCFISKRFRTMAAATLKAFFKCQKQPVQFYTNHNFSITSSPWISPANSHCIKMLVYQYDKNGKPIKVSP
Nature of the assay: Inhibition rate of the amount of IP1 in GPR139-expressed CHO cells (inverse agonist assay, Test Example 2). It counts as cell-based. The note with it: relative value, inhibition rate of Example Compound 2 in Test Example 1 defined as 100%; for inhibition at 30 µM: CHO. Put shortly:
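CHO-TREx cells with doxycycline-inducible human GPR139 (2 μg/mL, 17 h) were incubated with compound at 2000 cells/well for 40 min at 37° C. IP1 quantified by HTRF (665/615 nm ratio ×10000); inhibition rate expressed relative to a reference compound defined as […].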

Data on 21 molecules can be found in US12630534B2 (TAKEDA PHARMACEUTICAL COMPANY LIMITED, priority 2020, dated 2026).

For the molecule `CCn1cc(Cn2c(C(F)(F)F)cn(-c3nc(N4CCO[C@H](C)C4)cc(C(F)(F)F)c3F)c2=O)cn1` [Example 127, 3-[(1-Ethyl-1H-pyrazole-4-yl)methyl]-1-{3 fluoro-6-[(2R)-2-methylmorpholine-4-yl]-4-(trifluoromethyl)pyridine-2-yl}-4-(trifluoromethyl)-1,3-dihydro-2H-imidazole-2-one], the inhibition at 30 µM was 99%.

Consider `CCn1cc(Cn2c(C)c(C)n(-c3cc(OCC(F)(F)F)cc(N4CCO[C@H](C)C4)c3)c2=O)cn1` [Example 47, 1-[(1-ethyl-1H-pyrazol-4-yl)methyl]-4,5-dimethyl-3-{3-[(2R)-2-methylmorpholin-4-yl]-5-(2,2,2-trifluoroethoxy)phenyl}-1,3-dihydro-2H-imidazol-2-one], for which the inhibition at 30 µM was found to be 101%.

In the case of `CCn1cc(Cn2c(C)cn(-c3cc(N(C)C4CCOCC4)cc(C(F)(F)F)c3F)c2=O)cn1` [Example 53, 3-[(1-ethyl-1H-pyrazol-4-yl)methyl]-1-{2-fluoro-5-[methyl(oxan-4-yl)amino]-3-(trifluoromethyl)phenyl}-4-methyl-1,3-dihydro-2H-imidazol-2-one], the inhibition at 30 µM is 101%. Consider `Cc1cn(Cc2cnn(C(C)C)c2)c(=O)n1-c1cc(C(F)(F)F)cc(N(C)C2CCOCC2)n1` [Example 128, 4-methyl-3-{6-[methyl(oxan-4-yl)amino]-4-(trifluoromethyl)pyridin-2-yl}-1-{[1-(propan-2-yl)-1H-pyrazol-4-yl]methyl}-1,3-dihydro-2H-imidazol-2-one], for which the inhibition at 30 µM was 101%. On the same count and under the same terms, in the case of `CCn1cc(Cn2c(C)c(C)n(-c3cc(N4CCOC(F)(F)C4)cc(C(F)(F)F)c3F)c2=O)cn1` [Example 70, 1-[5-(2,2-difluoromorpholin-4-yl)-2-fluoro-3-(trifluoromethyl)phenyl]-3-[(1-ethyl-1H-pyrazol-4-yl)methyl]-4,5-dimethyl-1,3-dihydro-2H-imidazol-2-one] it was 100%. On the same count and under the same terms, the value for `CCn1cc(Cn2ccn(-c3cc(OC[C@@H]4CCCO4)cc(C(F)(F)F)c3F)c2=O)cn1` [Example 118, 1-[(1-ethyl-1H-pyrazol-4-yl)methyl]-3-[2-fluoro-5-{[(2S)-oxolan-2-yl]methoxy}-3-(trifluoromethyl)phenyl]-1,3-dihydro-2H-imidazol-2-one] was 100%; that for `CCn1cc(Cn2c(C)nn(-c3cc(N4CCC(F)(F)CC4)cc(C(F)(F)F)c3F)c2=O)cn1` [Example 97, 2-[5-(4,4-difluoropiperidin-1-yl)-2-fluoro-3-(trifluoromethyl)phenyl]-4-[(1-ethyl-1H-pyrazol-4-yl)methyl]-5-methyl-2,4-dihydro-3H-1,2,4-triazol-3-one] was 102%.

On to `CCn1cc(Cn2ccn(-c3cc(-c4ccc(F)cc4)cc(C4CC4(F)F)c3F)c2=O)cn1` (stereo not drawn) [Example 145, 1-[5-(2,2-difluorocyclopropyl)-4,4′-difluoro[1,1′-biphenyl]-3-yl]-3-[(1-ethyl-1H-pyrazol-4-yl)methyl]-1,3-dihydro-2H-imidazol-2-one], for which the “Inhibition Rate at 30 μM” value turned out to be 102%. `CCn1cc(Cn2cc(C)n(-c3cc(OCC4CC4(F)F)cc(C(F)(F)F)c3)c2=O)cn1` (stereo not drawn) [Example 51, 3-{3-[(2,2-difluorocyclopropyl)methoxy]-5-(trifluoromethyl)phenyl}-1-[(1-ethyl-1H-pyrazol-4-yl)methyl]-4-methyl-1,3-dihydro-2H-imidazol-2-one]: the “Inhibition Rate at 30 μM” value came to 102%. Regarding `Cc1nn(-c2cc(N3CCO[C@H](C)C3)cc(C(F)(F)F)c2F)c(=O)n1Cc1cnn(C(C)C)c1` [Example 91, 2-{2-fluoro-5-[(2R)-2-methylmorpholine-4-yl]-3-(trifluoromethyl)phenyl}-5-methyl-4-{[1-(propane-2-yl)-1H-pyrazole-4-yl]methyl}-2,4-dihydro-3H-1,2,4-triazole-3-one], the inhibition at 30 µM was 100%. On to `CCn1cc(Cn2cc(C)n(-c3cc(C4CC4)cc(N4CCOC(C)(C)C4)c3)c2=O)cn1` [Example 147, 3-[3-cyclopropyl-5-(2,2-dimethylmorpholin-4-yl)phenyl]-1-[(1-ethyl-1H-pyrazol-4-yl)methyl]-4-methyl-1,3-dihydro-2H-imidazol-2-one], for which the inhibition at 30 µM came to 100%. Same read-out and setting: the value for `CCn1cc(Cn2c(C)cn(-c3nc(N(C)C4CCOCC4)cc(C(F)(F)F)c3Cl)c2=O)cn1` [Example 83, 1-{3-chloro-6-[methyl(oxan-4-yl)amino]-4-(trifluoromethyl)pyridin-2-yl}-3-[(1-ethyl-1H-pyrazol-4-yl)methyl]-4-methyl-1,3-dihydro-2H-imidazol-2-one] was 99%; that for `CCc1cc(N2CCO[C@H](C)C2)cc(-n2ccn(Cc3cnn(CC)c3)c2=O)c1F` [Example 80, 1-{3-ethyl-2-fluoro-5-[(2R)-2-methylmorpholin-4-yl]phenyl}-3-[(1-ethyl-1H-pyrazol-4-yl)methyl]-1,3-dihydro-2H-imidazol-2-one] was 99%; that for `CCn1cc(Cn2c(C)nn(-c3cc(C(F)(F)F)cc(N4CCC(F)(F)CC4)n3)c2=O)cn1` [Example 141] was 101%. On the same count and under the same terms, the value for `Cc1c(C)n(-c2cc(C(F)F)cc(N(C)C3CCOCC3)c2)c(=O)n1Cc1cnn(C(C)C)c1` [Example 76, 1-{3-(difluoromethyl)-5-[methyl(oxan-4-yl)amino]phenyl}-4,5-dimethyl-3-{[1-(propan-2-yl)-1H-pyrazol-4-yl]methyl}-1,3-dihydro-2H-imidazol-2-one] was 97%; that for `CCn1cc(Cn2c(C)c(C)n(-c3cc(C(F)(F)F)cc(N4CCO[C@H](C)C4)n3)c2=O)cn1` [Example 60, 1-[(1-Ethyl-1H-pyrazole-4-yl)methyl]-4,5-dimethyl-3-{6-[(2R)-2-methylmorpholine-4-yl]-4-(trifluoromethyl)pyridine-2-yl}-1,3-dihydro-2H-imidazole-2-one] was 101%; that for `CCn1cc(Cn2cc(C)n(-c3cc(N4CCO[C@H](C)C4)cc(C(F)(F)F)c3Cl)c2=O)cn1` [Example 82, 3-{2-chloro-5-[(2R)-2-methylmorpholin-4-yl]-3-(trifluoromethyl)phenyl}-1-[(1-ethyl-1H-pyrazol-4-yl)methyl]-4-methyl-1,3-dihydro-2H-imidazol-2-one] was 100%. In the case of `Cc1nn(-c2cc(C(F)(F)F)cc(N3CCC(F)(F)CC3)n2)c(=O)n1Cc1cnn(C(C)C)c1` [Example 142, 2-[6-(4,4-difluoropiperidin-1-yl)-4-(trifluoromethyl)pyridin-2-yl]-5-methyl-4-{[1-(propan-2-yl)-1H-pyrazol-4-yl]methyl}-2,4-dihydro-3H-1,2,4-triazol-3-one], the inhibition at 30 µM came out at 100%. As for `Cc1nn(-c2cc(N3CCOC(C)(C)C3)cc(C(F)(F)F)c2F)c(=O)n1Cc1cnn(C(C)C)c1` [Example 93], the inhibition at 30 µM was determined as 99%. Still for that read-out and setting: the value for `CCn1cc(Cn2c(C)c(C)n(-c3cccc(N4CCO[C@H](C)C4)n3)c2=O)cn1` [Example 163, 1-[(1-ethyl-1H-pyrazol-4-yl)methyl]-4,5-dimethyl-3-{6-[(2R)-2-methylmorpholin-4-yl]pyridin-2-yl}-1,3-dihydro-2H-imidazol-2-one] was 96%. The same measure, in the same setting: in the case of `CCn1cc(Cn2cc(C)n(-c3cc(Oc4ccc(F)cc4)cc(C(F)(F)F)c3)c2=O)cn1` [Example 5, 1-[(1-ethyl-1H-pyrazol-4-yl)methyl]-3-[3-(4-fluorophenoxy)-5-(trifluoromethyl)phenyl]-4-methyl-1,3-dihydro-2H-imidazol-2-one] it was 99%.
